In one assay the target is T1, human GLP1 receptor (Homo sapiens, UniProt P43220).
T1 construct: expressed in transfected cells; host or cells: HEK cells, BacMam virus transduction
Put plainly: cAMP accumulation assay, functional agonism of human GLP1 receptor. It counts as cell-based. The following applies: HEK cells infected with human GLP1 receptor BacMam virus, HTRF cAMP; for Emax: HEK293, read-out: Human GLP-1R agonist cAMP Emax; for EC50: read-out: Human GLP-1R agonist cAMP pEC50 (converted). The method, then:
(§1) CAMP production upon agonist stimulation of human GLP2 or GLP1 receptor was assessed utilizing HiRange cAMP kit (Cisbio). In brief, HEK cells were infected with either human GLP2 or GLP1 receptor BacMam virus for 24 hours and frozen for later use in the assay. […] Cells were prepared in the assay buffer (HBSS (Lonza) supplemented with 0.5 mM IBMX (Tocris)). After 45 min incubation at 37° C., the reaction was stopped by addition of the HTRF detection reagents in the lysis buffer provided in the kit.

Another assay concerns the target T2, human GLP2 receptor (Homo sapiens, UniProt O95838).
T2 construct: expressed in transfected cells; host or cells: HEK cells, BacMam virus transduction
T2 sequence (O95838 1-553): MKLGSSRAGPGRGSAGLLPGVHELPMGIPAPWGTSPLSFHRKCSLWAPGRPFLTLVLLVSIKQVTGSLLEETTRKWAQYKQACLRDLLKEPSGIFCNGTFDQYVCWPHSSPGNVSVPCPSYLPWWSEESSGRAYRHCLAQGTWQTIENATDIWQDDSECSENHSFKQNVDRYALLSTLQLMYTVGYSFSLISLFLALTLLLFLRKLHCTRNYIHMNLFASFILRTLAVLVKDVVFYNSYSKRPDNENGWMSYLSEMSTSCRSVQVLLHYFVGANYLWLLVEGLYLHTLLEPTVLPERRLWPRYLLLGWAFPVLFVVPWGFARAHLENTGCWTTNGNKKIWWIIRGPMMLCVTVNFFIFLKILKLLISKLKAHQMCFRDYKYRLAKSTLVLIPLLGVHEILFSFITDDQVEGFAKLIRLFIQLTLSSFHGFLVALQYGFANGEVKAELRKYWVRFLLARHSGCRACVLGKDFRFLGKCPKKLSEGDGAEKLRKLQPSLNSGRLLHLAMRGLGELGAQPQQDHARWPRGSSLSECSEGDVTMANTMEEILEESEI
Description: cAMP accumulation assay, functional agonism of human GLP2 receptor. The format is cell-based. The following applies: HEK cells infected with human GLP2 receptor BacMam virus, HTRF cAMP; for Emax: HEK293, read-out: Human GLP-2R agonist cAMP Emax; for EC50: read-out: Human GLP-2R agonist cAMP pEC50 (converted). How it is done:
as §1
For orientation: Cyclic AMP is a second messenger, typically raised through Gs and lowered through Gi signalling.

Positions of bridges follow the written chain, without caps; N, C: chain ends. Non-standard residues stand in square brackets, D forms with d. Residues, ends and D or L forms follow the SMILES beside them. *: point of attachment. Malonyl(2,2-Me2,histaminyl) = CC(C)(C(=O)NCCc1cnc[nH]1)C(=O)*; Ala(1H-tetrazol-5-yl) = N[C@@H](Cc1nnn[nH]1)C(=O)O; αMePhe(2-F) = C[C@](N)(Cc1ccccc1F)C(=O)O; αMeL = CC(C)C[C@](C)(N)C(=O)O; Nle = CCCC[C@H](N)C(=O)O; Aib = CC(C)(N)C(=O)O

T1 sequence (P43220 24-463): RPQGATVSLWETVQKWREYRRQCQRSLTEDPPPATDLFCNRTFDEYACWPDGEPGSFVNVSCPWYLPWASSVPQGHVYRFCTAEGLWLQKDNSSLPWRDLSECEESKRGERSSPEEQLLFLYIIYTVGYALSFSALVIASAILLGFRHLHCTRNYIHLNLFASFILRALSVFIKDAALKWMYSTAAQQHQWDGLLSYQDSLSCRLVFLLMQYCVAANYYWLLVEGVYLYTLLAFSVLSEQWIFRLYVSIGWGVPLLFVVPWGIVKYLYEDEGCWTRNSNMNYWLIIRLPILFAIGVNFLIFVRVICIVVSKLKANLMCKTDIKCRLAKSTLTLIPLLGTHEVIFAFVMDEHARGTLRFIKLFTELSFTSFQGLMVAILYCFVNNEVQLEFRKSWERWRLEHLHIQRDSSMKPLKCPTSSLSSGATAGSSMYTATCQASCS

The Emax is the greatest response seen or fitted, relative to the assay's reference. As to `CCCC[C@H](NC(=O)[C@H](CCC(=O)O)NC(=O)[C@@H]1CC(=O)NCCCC[C@H](NC(=O)[C@H](CCC(=O)O)NC(=O)C(C)(C)NC(=O)[C@@H](N)Cc2c[nH]cn2)C(=O)N[C@@H](CO)C(=O)N[C@@H](Cc2ccccc2)C(=O)N[C@@H](CO)C(=O)N1)C(=O)N[C@H](Cc1ccccc1)C(=O)N[C@H](C(=O)N[C@@](C)(CC(C)C)C(=O)N[C@@H](CC(C)C)C(=O)N[C@@H](CC(=O)O)C(=O)N[C@H]1CCC(=O)NCCCC[C@@H](C(=O)N[C@@H](CC(=O)O)C(=O)N[C@@H](Cc2ccccc2)C(=O)N[C@H](C(=O)N[C@H]2CCC(=O)NCCCC[C@@H](C(=O)N[C@H](C(=O)N[C@@H](CCCCN)C(N)=O)[C@@H](C)O)NC(=O)[C@H]([C@@H](C)CC)NC(=O)[C@H](CC(C)C)NC(=O)[C@H](Cc3c[nH]c4ccccc34)NC2=O)[C@@H](C)CC)NC(=O)[C@H](C)NC(=O)[C@H](C)NC(=O)[C@H](CCCCN)NC1=O)[C@@H](C)O` [Example 28] (H-H[Aib]EKSFSDE[Nle][dF]T[αMeL]LDEKAAKDFIEWLIKTK-NH2; lactam 4-8, 16-20, 24-28 (inferred); C-terminus assumed), the Emax on human GLP1 receptor worked out at 96%; on human GLP2 receptor it was 99.6%. Further, the EC50 on human GLP1 receptor is 0.0794 nM; at human GLP2 receptor, 0.316 nM.

For `CCCC[C@H](NC(=O)[C@H](CCC(=O)O)NC(=O)[C@@H]1CC(=O)NCCCC[C@H](NC(=O)[C@H](CCC(=O)O)NC(=O)C(C)(C)NC(=O)[C@@H](N)Cc2c[nH]cn2)C(=O)N[C@@H](CO)C(=O)N[C@@](C)(Cc2ccccc2F)C(=O)N[C@@H](CO)C(=O)N1)C(=O)N[C@H](Cc1ccccc1)C(=O)N[C@H](C(=O)N[C@@](C)(CC(C)C)C(=O)N[C@@H](CC(C)C)C(=O)N[C@@H](CC(=O)O)C(=O)N[C@H]1CCC(=O)NCCCC[C@@H](C(=O)N[C@@H](CC(=O)O)C(=O)N[C@@H](Cc2ccccc2)C(=O)N[C@H](C(=O)N[C@H]2CCC(=O)NCCCC[C@@H](C(=O)N[C@H](C(=O)N[C@@H](CCCCN)C(N)=O)[C@@H](C)O)NC(=O)[C@H]([C@@H](C)CC)NC(=O)[C@H](CC(C)C)NC(=O)[C@H](Cc3c[nH]c4ccccc34)NC2=O)[C@@H](C)CC)NC(=O)[C@H](C)NC(=O)[C@H](C)NC(=O)[C@H](CCCCN)NC1=O)[C@@H](C)O` [Example 32] (H-H[Aib]EKS[αMePhe(2-F)]SDE[Nle][dF]T[αMeL]LDEKAAKDFIEWLIKTK-NH2; lactam 4-8, 16-20, 24-28 (inferred); C-terminus assumed), the Emax at human GLP1 receptor was found to be 97.8%; on human GLP2 receptor, 91.3%. The EC50 is 0.0251 nM on human GLP1 receptor and 0.794 nM at human GLP2 receptor.

`CCCC[C@H](NC(=O)[C@H](CCC(=O)O)NC(=O)[C@@H]1CC(=O)NCCCC[C@H](NC(=O)[C@H](CC(=O)O)NC(=O)C(C)(C)C(=O)NCCc2c[nH]cn2)C(=O)N[C@@H](CO)C(=O)N[C@@](C)(Cc2ccccc2F)C(=O)N[C@@H](CO)C(=O)N1)C(=O)N[C@H](Cc1ccccc1)C(=O)N[C@H](C(=O)N[C@@](C)(CC(C)C)C(=O)N[C@@H](CC(C)C)C(=O)N[C@@H](CC(=O)O)C(=O)N[C@H]1CCC(=O)NCCCC[C@@H](C(=O)N[C@@H](CC(=O)O)C(=O)N[C@@H](Cc2ccccc2)C(=O)N[C@H](C(=O)N[C@H]2CCC(=O)NCCCC[C@@H](C(=O)N[C@H](C(=O)N[C@@H](CCCCN)C(N)=O)[C@@H](C)O)NC(=O)[C@H]([C@@H](C)CC)NC(=O)[C@H](CC(C)C)NC(=O)[C@H](Cc3c[nH]c4ccccc34)NC2=O)[C@@H](C)CC)NC(=O)[C@H](C)NC(=O)[C@H](C)NC(=O)[C@H](CCCCN)NC1=O)[C@@H](C)O` [Example 33] ({Malonyl(2,2-Me2,histaminyl)}-DKS[αMePhe(2-F)]SDE[Nle][dF]T[αMeL]LDEKAAKDFIEWLIKTK-NH2; lactam 2-6, 14-18, 22-26; C-terminus assumed): on human GLP1 receptor, the maximum response (Emax) was found to be 98.1% and the EC50 is 0.0251 nM. Further, on human GLP2 receptor, the Emax came out at 102% and the EC50 was 0.0316 nM.

`CCCC[C@H](NC(=O)[C@H](CCC(=O)O)NC(=O)[C@@H]1CC(=O)NCCCC[C@H](NC(=O)[C@H](Cc2nn[nH]n2)NC(=O)C(C)(C)C(=O)NCCc2c[nH]cn2)C(=O)N[C@@H](CO)C(=O)N[C@@H](Cc2ccccc2)C(=O)N[C@@H](CO)C(=O)N1)C(=O)N[C@H](Cc1ccccc1)C(=O)N[C@H]1CCCCNC(=O)C[C@@H](C(=O)N[C@@H](CCCCN)C(=O)N[C@@H](C)C(=O)N[C@@H](C)C(=O)NC(C)(C)C(=O)N[C@@H](CC(=O)O)C(=O)N[C@@H](Cc2ccccc2)C(=O)N[C@H](C(=O)N[C@H]2CCC(=O)NCCCC[C@@H](C(=O)N[C@H]3CCC(=O)NCCCC[C@@H](C(N)=O)NC(=O)[C@H]([C@@H](C)O)NC(=O)[C@H]([C@@H](C)CC)NC(=O)[C@H](CCCCN)NC3=O)NC(=O)[C@H]([C@@H](C)CC)NC(=O)[C@H](CC(C)C)NC(=O)[C@H](Cc3c[nH]c4ccccc34)NC2=O)[C@@H](C)CC)NC(=O)[C@H](CC(=O)O)NC(=O)[C@H](CC(C)C)NC(=O)[C@H]([C@@H](C)CC)NC1=O` [Example 42] ({Malonyl(2,2-Me2,histaminyl)}-[Ala(1H-tetrazol-5-yl)]KSFSDE[Nle][dF]KILDDKAA[Aib]DFIEWLIKEKITK-NH2; lactam 2-6, 10-14, 22-26, 27-31; C-terminus assumed): at human GLP1 receptor, the Emax amounted to 94.1% and the EC50 is 0.2 nM. At human GLP2 receptor, the Emax is 96.4% and the EC50 is 0.398 nM.

On to `CCCC[C@H](NC(=O)[C@H](CCC(=O)O)NC(=O)[C@@H]1CC(=O)NCCCC[C@H](NC(=O)[C@H](Cc2nn[nH]n2)NC(=O)C(C)(C)C(=O)NCCc2c[nH]cn2)C(=O)N[C@@H](CO)C(=O)N[C@@H](Cc2ccccc2)C(=O)N[C@@H](CO)C(=O)N1)C(=O)N[C@H](Cc1ccccc1)C(=O)N[C@H](C(=O)N[C@@](C)(CC(C)C)C(=O)N[C@@H](CC(C)C)C(=O)N[C@@H](CC(=O)O)C(=O)N[C@H]1CCC(=O)NCCCC[C@@H](C(=O)N[C@@H](CC(=O)O)C(=O)N[C@@H](Cc2ccccc2)C(=O)N[C@H](C(=O)N[C@H]2CCC(=O)NCCCC[C@@H](C(=O)N[C@H](C(=O)N[C@H]3CCC(=O)NCCCC[C@@H](C(N)=O)NC(=O)[C@H]([C@@H](C)O)NC(=O)[C@H]([C@@H](C)CC)NC3=O)[C@@H](C)O)NC(=O)[C@H]([C@@H](C)CC)NC(=O)[C@H](CC(C)C)NC(=O)[C@H](Cc3c[nH]c4ccccc34)NC2=O)[C@@H](C)CC)NC(=O)[C@H](C)NC(=O)[C@H](C)NC(=O)[C@H](CCCCN)NC1=O)[C@@H](C)O` [Example 44] ({Malonyl(2,2-Me2,histaminyl)}-[Ala(1H-tetrazol-5-yl)]KSFSDE[Nle][dF]T[αMeL]LDEKAAKDFIEWLIKTEITK-NH2; lactam 2-6, 14-18, 22-26, 28-31; C-terminus assumed), for which, on human GLP1 receptor, the maximum response (Emax) stood at 96.1% and the EC50 is 0.2 nM. Also, at human GLP2 receptor, the Emax came to 104% and the EC50 was 0.631 nM.

For `CCCC[C@H](NC(=O)[C@H](CCC(=O)O)NC(=O)[C@@H]1CC(=O)NCCCC[C@H](NC(=O)[C@H](CC(=O)O)NC(=O)C(C)(C)NC(=O)[C@@H](N)Cc2c[nH]cn2)C(=O)N[C@@H](CO)C(=O)N[C@@H](Cc2ccccc2)C(=O)N[C@@H](CO)C(=O)N1)C(=O)N[C@H](Cc1ccccc1)C(=O)N[C@H]1CCCCNC(=O)C[C@@H](C(=O)N[C@@H](CCCCN)C(=O)N[C@@H](C)C(=O)N[C@@H](C)C(=O)NC(C)(C)C(=O)N[C@@H](CC(=O)O)C(=O)N[C@@H](Cc2ccccc2)C(=O)N[C@H](C(=O)N[C@H]2CCC(=O)NCCCC[C@@H](C(=O)N[C@H]3CCC(=O)NCCCC[C@@H](C(N)=O)NC(=O)[C@H]([C@@H](C)O)NC(=O)[C@H]([C@@H](C)CC)NC(=O)[C@H](CCCCN)NC3=O)NC(=O)[C@H]([C@@H](C)CC)NC(=O)[C@H](CC(C)C)NC(=O)[C@H](Cc3c[nH]c4ccccc34)NC2=O)[C@@H](C)CC)NC(=O)[C@H](CC(=O)O)NC(=O)[C@H](CC(C)C)NC(=O)[C@H]([C@@H](C)CC)NC1=O` [Example 47] (H-H[Aib]DKSFSDE[Nle][dF]KILDDKAA[Aib]DFIEWLIKEKITK-NH2; lactam 4-8, 12-16, 24-28, 29-33; N-terminus and C-terminus assumed), on human GLP1 receptor, the maximal effect (Emax) was determined as 93.6% and the EC50 was 0.316 nM. Moreover, at human GLP2 receptor, the maximal effect (Emax) was determined as 104% and the EC50 is 0.158 nM.

The values above are taken from patent US20240270809A1, “ORAL GLP RECEPTOR AGONISTS” (priority 2020, published 2024).
